In brackets after ≈: the same amount, converted by molar mass. Where two headings read alike, the source gives them in different places.
How the values were obtained:
NDM-1 = NDM-1 (Klebsiella pneumoniae, UniProt C7C422); assay: biochemical
IMP-1 [1] = molecular target: T1, IMP-1 (Serratia marcescens, UniProt P52699); assay: β-lactamase inhibition assay, nitrocefin substrate; assay type: biochemical
[2] = tested on: K. pneumoniae expressing OXA-48; assay: broth microdilution MIC, meropenem potentiation; assay type: cell-based; details: Klebsiella pneumoniae, read-out: MIC of meropenem alone
[3] = tested on: P. aeruginosa expressing VIM-2; assay: broth microdilution MIC, meropenem potentiation; assay type: cell-based; details: Pseudomonas aeruginosa, read-out: MIC of meropenem alone
[4] = tested on: K. pneumoniae expressing KPC-2; assay: broth microdilution MIC, meropenem potentiation; assay type: cell-based; details: Klebsiella pneumoniae, read-out: MIC of meropenem alone
[5] = tested on: K. pneumoniae expressing KPC-2 and VIM-4; assay: broth microdilution MIC, meropenem potentiation; assay type: cell-based; details: Klebsiella pneumoniae, read-out: MIC of meropenem alone
[6] = tested on: K. pneumoniae UNT-065-1 expressing CTX-M-14; assay: neutropenic mouse lung infection model; assay type: in vivo; details: neutropenic mice
[7] = tested on: P. aeruginosa CDC-0356 (KPC-2, PDC-42); assay: MIC, rescue of β-lactams in MDR clinical isolates; assay type: cell-based; details: Pseudomonas aeruginosa, read-out: FEP MIC
[8] = tested on: P. aeruginosa CDC-0457 (VIM); assay: MIC, rescue of β-lactams in MDR clinical isolates; assay type: cell-based; details: Pseudomonas aeruginosa; read-out: FEP MIC
[9] = tested on: K. pneumoniae CDC-0361 (KPC-2, SHV-12, TEM-1); assay: MIC, rescue of β-lactams in MDR clinical isolates; assay type: cell-based; details: Klebsiella pneumoniae; read-out: FEP MIC
[10] = tested on: K. pneumoniae CDC-0040 (VIM-27, CTX-M-15, SHV-11, OXA-1); assay: MIC, rescue of β-lactams in MDR clinical isolates; assay type: cell-based; details: Klebsiella pneumoniae, read-out: FEP MIC
E. coli CDC-0452 (NDM) = assay: MIC, rescue of β-lactams in MDR clinical isolates; assay type: cell-based; details: Escherichia coli; read-out: FEP MIC
[11] = tested on: E. coli UNT-057-1 expressing CTX-M-15; assay: mouse ascending urinary tract infection model; assay type: in vivo; details: mice, at day 7; BID s.c.; cefepime alone, cefepime/VNRX-5133 16:8, Caz/Avi 16:4 mg/kg/dose
E. coli (CTX-M-15) = assay: MIC against the urinary tract model strain; assay type: cell-based; details: Escherichia coli
K. pneumoniae (CTX-M-14) = assay: MIC against the lung model strain; assay type: cell-based; details: Klebsiella pneumoniae
[12] = tested on: E. coli CDC-0055 (NDM-1, CMY-6, OXA-1); assay: MIC, rescue of β-lactams in MDR clinical isolates; assay type: cell-based; details: Escherichia coli; read-out: FEP MIC
[13] = tested on: K. pneumoniae ATCC BAA 1705 (KPC-2); assay: MIC, rescue of β-lactams in MDR clinical isolates; assay type: cell-based; details: Klebsiella pneumoniae, BAA1705; read-out: FEP MIC
[14] = tested on: K. pneumoniae CDC-0066 (OXA-232, OXA-9, TEM-1A, CTX-M-15, OXA-1); assay: MIC, rescue of β-lactams in MDR clinical isolates; assay type: cell-based; details: Klebsiella pneumoniae, read-out: FEP MIC
MMP-1 = MMP-1 (Homo sapiens, UniProt P03956); assay: selectivity panel at 100 μM; assay type: biochemical
Chain of MMP-1 (P03956 100-469): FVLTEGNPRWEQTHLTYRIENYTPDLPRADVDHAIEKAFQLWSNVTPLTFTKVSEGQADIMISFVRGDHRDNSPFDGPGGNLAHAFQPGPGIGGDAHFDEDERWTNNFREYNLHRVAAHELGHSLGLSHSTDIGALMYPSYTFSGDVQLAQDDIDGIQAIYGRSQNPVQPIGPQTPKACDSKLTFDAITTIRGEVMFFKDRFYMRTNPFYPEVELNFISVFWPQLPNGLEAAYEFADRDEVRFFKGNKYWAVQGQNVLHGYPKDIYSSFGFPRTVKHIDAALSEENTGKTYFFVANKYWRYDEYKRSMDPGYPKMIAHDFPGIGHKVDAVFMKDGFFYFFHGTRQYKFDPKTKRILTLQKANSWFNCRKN
From the text: (§1) The panel included serine proteases (i.e., cathepsin G, chymotrypsin, Factor Xa, trypsin, and neutrophil elastase 2), metalloproteinases (MMP-1, -2, -3, and -9), cytochrome P450s (1A2, 2C9, 2C19, 2D6, and 3A4), and the hERG potassium channel.

cathepsin G = cathepsin G (Homo sapiens, UniProt P08311); assay: selectivity panel at 100 μM; assay type: biochemical
Chain of cathepsin G (P08311 21-255): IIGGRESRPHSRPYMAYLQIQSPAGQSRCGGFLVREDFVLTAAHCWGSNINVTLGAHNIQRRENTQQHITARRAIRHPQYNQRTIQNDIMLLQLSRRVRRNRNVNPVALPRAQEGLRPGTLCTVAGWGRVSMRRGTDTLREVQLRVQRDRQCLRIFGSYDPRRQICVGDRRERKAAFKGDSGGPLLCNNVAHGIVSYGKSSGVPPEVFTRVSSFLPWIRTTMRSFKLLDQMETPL
From the text: as §1

MMP-2 = MMP-2 (Homo sapiens, UniProt P08253); assay: selectivity panel at 100 μM; assay type: biochemical
Chain of MMP-2 (P08253 110-660): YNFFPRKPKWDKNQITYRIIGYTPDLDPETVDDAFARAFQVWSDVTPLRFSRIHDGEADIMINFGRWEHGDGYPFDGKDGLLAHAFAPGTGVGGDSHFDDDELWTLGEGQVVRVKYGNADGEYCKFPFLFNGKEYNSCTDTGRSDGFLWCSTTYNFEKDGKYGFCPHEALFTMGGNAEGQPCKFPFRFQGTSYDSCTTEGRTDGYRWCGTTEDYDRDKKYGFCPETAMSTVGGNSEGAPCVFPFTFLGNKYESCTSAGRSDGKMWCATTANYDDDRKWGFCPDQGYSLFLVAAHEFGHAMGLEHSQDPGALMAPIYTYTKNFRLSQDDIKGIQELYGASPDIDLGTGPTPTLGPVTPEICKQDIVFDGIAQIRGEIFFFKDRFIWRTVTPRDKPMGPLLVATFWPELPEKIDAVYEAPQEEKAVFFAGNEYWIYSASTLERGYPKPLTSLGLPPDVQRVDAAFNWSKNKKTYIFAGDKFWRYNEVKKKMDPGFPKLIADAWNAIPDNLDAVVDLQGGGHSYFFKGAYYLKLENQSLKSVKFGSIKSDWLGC
From the text: as §1

Factor Xa = molecular target: T2, Factor Xa (Homo sapiens, UniProt P00742); assay: selectivity panel at 100 μM; assay type: biochemical
T2 construct: serine proteases (i.e., cathepsin G, chymotrypsin, Factor Xa, trypsin, and neutrophil elastase 2)
From the text: as §1

MMP-9 = MMP-9 (Homo sapiens, UniProt P14780); assay: selectivity panel at 100 μM; assay type: biochemical
Chain of MMP-9 (P14780 94-707): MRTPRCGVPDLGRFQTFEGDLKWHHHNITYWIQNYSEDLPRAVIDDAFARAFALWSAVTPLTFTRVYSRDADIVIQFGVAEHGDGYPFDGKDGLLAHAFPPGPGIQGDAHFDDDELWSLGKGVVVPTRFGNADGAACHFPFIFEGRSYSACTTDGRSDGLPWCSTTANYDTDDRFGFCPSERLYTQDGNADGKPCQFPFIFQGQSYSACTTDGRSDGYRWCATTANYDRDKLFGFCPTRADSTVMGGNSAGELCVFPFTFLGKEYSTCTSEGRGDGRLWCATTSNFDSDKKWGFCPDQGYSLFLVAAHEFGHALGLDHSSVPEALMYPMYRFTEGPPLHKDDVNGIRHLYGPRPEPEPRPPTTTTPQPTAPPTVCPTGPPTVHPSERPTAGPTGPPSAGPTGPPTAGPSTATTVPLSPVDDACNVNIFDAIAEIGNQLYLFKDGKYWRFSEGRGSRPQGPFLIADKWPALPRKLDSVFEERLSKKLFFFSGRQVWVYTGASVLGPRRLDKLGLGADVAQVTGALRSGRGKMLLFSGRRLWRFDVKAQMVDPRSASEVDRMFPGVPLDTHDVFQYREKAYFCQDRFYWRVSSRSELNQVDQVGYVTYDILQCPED
From the text: as §1

MMP-3 = MMP-3 (Homo sapiens, UniProt P08254); assay: selectivity panel at 100 μM; assay type: biochemical
From the text: as §1

neutrophil elastase 2 = neutrophil elastase 2 (Homo sapiens, UniProt P08246); assay: selectivity panel at 100 μM; assay type: biochemical
Chain of neutrophil elastase 2 (P08246 30-267): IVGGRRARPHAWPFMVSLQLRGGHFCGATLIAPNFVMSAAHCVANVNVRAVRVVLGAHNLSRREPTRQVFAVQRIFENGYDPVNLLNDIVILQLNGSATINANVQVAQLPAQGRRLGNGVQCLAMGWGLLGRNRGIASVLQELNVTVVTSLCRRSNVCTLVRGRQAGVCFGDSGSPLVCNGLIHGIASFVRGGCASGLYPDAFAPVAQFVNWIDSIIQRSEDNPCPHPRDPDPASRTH
From the text: as §1

cytochrome P450 1A2 = cytochrome P450 1A2 (Homo sapiens, UniProt P05177); assay: selectivity panel at 100 μM; assay type: in vitro ADME
Chain of cytochrome P450 1A2 (P05177 whole entry): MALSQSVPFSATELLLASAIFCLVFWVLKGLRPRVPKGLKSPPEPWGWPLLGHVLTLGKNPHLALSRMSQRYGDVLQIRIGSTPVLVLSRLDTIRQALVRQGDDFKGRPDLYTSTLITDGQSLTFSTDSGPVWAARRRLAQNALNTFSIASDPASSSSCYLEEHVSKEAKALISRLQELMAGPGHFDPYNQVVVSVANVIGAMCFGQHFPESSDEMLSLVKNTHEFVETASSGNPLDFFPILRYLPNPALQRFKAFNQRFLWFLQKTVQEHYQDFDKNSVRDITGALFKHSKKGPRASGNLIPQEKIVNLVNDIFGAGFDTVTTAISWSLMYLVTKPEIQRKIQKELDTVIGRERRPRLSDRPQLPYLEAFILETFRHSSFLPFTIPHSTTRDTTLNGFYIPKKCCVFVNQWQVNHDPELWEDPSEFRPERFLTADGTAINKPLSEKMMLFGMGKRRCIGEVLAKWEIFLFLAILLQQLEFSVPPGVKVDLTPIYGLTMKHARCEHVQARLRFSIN
From the text: as §1

cytochrome P450 2D6 = cytochrome P450 2D6 (Homo sapiens, UniProt P10635); assay: selectivity panel at 100 μM; assay type: in vitro ADME
Chain of cytochrome P450 2D6 (P10635 whole entry): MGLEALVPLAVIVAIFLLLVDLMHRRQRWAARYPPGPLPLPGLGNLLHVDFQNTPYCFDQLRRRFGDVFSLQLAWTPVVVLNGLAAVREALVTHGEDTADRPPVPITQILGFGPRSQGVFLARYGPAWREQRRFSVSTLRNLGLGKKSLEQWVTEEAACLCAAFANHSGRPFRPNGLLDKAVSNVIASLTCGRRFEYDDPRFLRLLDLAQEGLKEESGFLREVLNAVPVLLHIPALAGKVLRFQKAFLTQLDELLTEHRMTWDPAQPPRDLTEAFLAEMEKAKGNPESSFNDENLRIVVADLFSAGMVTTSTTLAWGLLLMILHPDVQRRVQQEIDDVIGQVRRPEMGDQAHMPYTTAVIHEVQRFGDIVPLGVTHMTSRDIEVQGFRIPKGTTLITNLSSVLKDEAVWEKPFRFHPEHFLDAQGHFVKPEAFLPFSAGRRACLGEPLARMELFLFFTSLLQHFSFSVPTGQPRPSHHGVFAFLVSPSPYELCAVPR
From the text: as §1

cytochrome P450 3A4 = cytochrome P450 3A4 (Homo sapiens, UniProt P08684); assay: selectivity panel at 100 μM; assay type: in vitro ADME
From the text: as §1

cytochrome P450 2C9 = cytochrome P450 2C9 (Homo sapiens, UniProt P11712); assay: selectivity panel at 100 μM; assay type: in vitro ADME
From the text: as §1

cytochrome P450 2C19 = cytochrome P450 2C19 (Homo sapiens, UniProt P33261); assay: selectivity panel at 100 μM; assay type: in vitro ADME
Chain of cytochrome P450 2C19 (P33261 whole entry): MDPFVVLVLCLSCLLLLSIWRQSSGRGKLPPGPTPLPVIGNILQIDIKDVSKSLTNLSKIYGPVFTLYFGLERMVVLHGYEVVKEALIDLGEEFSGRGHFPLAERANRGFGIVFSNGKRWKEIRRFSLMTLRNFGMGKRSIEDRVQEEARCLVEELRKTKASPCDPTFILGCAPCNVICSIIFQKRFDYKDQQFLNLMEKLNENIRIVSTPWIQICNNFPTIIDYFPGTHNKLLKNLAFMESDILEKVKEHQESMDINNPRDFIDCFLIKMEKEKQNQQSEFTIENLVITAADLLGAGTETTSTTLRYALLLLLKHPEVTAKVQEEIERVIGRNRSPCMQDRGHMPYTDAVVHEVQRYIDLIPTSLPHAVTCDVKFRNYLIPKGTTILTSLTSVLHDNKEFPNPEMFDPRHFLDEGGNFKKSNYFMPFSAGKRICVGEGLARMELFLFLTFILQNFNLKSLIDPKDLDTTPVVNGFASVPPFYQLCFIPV
From the text: as §1

[15] = tested on: K. pneumoniae UMM (SHV5, KPC-2, TEM-1); assay: intrinsic antibacterial activity, MIC; assay type: cell-based; details: Klebsiella pneumoniae
[16] = tested on: panel of 50 human enzymes and receptors; assay: selectivity panel at 100 μM
From the text: as §1

hERG potassium channel = hERG potassium channel (Homo sapiens, UniProt Q12809); assay: selectivity panel at 100 μM
Chain of hERG potassium channel (Q12809 whole entry): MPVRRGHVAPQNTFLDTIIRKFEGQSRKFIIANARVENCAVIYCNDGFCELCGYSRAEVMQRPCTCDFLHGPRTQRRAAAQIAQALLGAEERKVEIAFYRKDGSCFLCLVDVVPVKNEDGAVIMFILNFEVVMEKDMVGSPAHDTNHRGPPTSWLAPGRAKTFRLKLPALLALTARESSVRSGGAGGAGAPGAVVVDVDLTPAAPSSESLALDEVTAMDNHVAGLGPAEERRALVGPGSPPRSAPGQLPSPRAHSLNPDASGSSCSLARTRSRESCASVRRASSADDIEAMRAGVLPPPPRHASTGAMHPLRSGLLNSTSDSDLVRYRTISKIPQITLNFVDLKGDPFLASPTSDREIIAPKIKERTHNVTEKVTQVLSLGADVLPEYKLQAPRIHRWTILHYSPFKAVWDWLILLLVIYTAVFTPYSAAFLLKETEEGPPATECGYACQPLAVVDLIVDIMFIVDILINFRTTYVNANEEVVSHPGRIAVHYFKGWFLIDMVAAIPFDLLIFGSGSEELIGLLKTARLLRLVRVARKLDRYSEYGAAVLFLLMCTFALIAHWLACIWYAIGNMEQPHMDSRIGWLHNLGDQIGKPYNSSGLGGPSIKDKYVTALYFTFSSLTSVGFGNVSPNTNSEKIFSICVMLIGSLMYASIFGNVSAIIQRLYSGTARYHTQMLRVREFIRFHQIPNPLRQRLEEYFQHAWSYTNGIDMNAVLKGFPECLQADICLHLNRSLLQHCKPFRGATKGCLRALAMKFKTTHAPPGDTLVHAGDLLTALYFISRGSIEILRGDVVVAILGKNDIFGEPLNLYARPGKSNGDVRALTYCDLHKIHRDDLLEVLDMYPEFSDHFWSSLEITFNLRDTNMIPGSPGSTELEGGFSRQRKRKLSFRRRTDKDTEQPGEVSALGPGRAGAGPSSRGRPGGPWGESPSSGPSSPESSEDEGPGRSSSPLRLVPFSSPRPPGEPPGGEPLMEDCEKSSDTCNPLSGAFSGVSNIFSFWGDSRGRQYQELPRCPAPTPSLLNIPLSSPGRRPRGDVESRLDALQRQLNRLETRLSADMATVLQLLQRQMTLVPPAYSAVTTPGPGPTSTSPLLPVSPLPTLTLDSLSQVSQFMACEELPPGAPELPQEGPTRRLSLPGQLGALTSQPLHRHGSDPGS
From the text: as §1

CphA = details: read-out: IC50 subclass B2 MBL CphA; cited from earlier work
E. coli 25922 (W/T) = assay: intrinsic antibacterial activity, MIC; assay type: cell-based; details: Escherichia coli
[17] = tested on: P. aeruginosa 27853 (W/T); assay: intrinsic antibacterial activity, MIC; assay type: cell-based; details: Pseudomonas aeruginosa
trypsin = assay: selectivity panel at 100 μM; assay type: biochemical, human
From the text: as §1

chymotrypsin = assay: selectivity panel at 100 μM; assay type: biochemical, human
From the text: as §1

[18] = tested on: P. aeruginosa Ps296 (AmpC, VIM-2, TEM-1); assay: intrinsic antibacterial activity, MIC; assay type: cell-based; details: Pseudomonas aeruginosa
[19] = tested on: K. pneumoniae A-1797 (KPC-2, VIM-4, CMY-4); assay: microbe, parasite or virus in culture; assay type: cell-based; details: Klebsiella pneumoniae
[20] = tested on: human primary renal proximal tubule cells; assay: toxicity in renal proximal tubule cells; assay type: cell-based; details: tested up to 1000 μg/mL
[21] = tested on: K. pneumoniae CI 09 (W/T); assay: intrinsic antibacterial activity, MIC; assay type: cell-based; details: Klebsiella pneumoniae
OXA-48 = OXA-48 (Klebsiella pneumoniae, UniProt Q6XEC0); details: read-out: IC50 OXA-48, literature value in parentheses; cited from earlier work
S. aureus 29213 (W/T) = assay: intrinsic antibacterial activity, MIC; assay type: cell-based; details: Staphylococcus aureus
[22] = preclinical toxicity evaluation
From the text: NCT03840148 at ClinicalTrials.gov).

L1 = tested on: L1; parameters: method as in PMID 31454231; details: cited from earlier work
IMP-1 [23] = molecular target: T1, IMP-1; details: read-out: IC50 IMP-1, literature value in parentheses; cited from earlier work
[24] = tested on: E. aerogenes 188548 (AmpC); assay: intrinsic antibacterial activity, MIC; assay type: cell-based; details: Klebsiella aerogenes
[25] = tested on: K. pneumoniae 11978 (OXA-48); assay: intrinsic antibacterial activity, MIC; assay type: cell-based; details: Klebsiella pneumoniae
[26] = tested on: 14 Gram-negative pathogens expressing class B enzymes (VIM-1, VIM-2, VIM-4, NDM-1); assay type: cell-based; details: 14 MBL-producing strains
S. aureus 33591 (MRSA) = assay: intrinsic antibacterial activity, MIC; assay type: cell-based; details: Staphylococcus aureus
[27] = tested on: E. cloacae 144200 (p99 AmpC); assay: intrinsic antibacterial activity, MIC; assay type: cell-based; details: Enterobacter cloacae
[28] = tested on: E. coli J53 (SHV5, AmpC, TEM-1); assay: intrinsic antibacterial activity, MIC; assay type: cell-based; details: Escherichia coli
VIM-2 = VIM-2 (Escherichia coli, UniProt Q5U7L7); assay: β-lactamase inhibition assay, nitrocefin substrate; assay type: biochemical; details: in our hands

T1 sequence (P52699 19-246 limits assumed): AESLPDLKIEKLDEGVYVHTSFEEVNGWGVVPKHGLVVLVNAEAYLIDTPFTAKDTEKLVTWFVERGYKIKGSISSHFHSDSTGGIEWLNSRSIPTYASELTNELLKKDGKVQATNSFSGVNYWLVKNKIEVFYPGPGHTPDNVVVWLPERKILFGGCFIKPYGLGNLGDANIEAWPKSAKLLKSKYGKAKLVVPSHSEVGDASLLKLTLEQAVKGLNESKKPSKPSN

O=C(O)[C@H]1/C(=C/CO)O[C@@H]2CC(=O)N21 [clavulanic acid]
IC50 (NDM-1): > 100000 nM | IC50 (IMP-1 [1]): > 100000 nM

C[C@@H](O)[C@H]1C(=O)N2C(C(=O)O)=C(S[C@@H]3CN[C@H](C(=O)N(C)C)C3)[C@H](C)[C@H]12 [meropenem]
MIC [2]: ≥ 32 µg/mL | MIC [3]: ≥ 32 µg/mL | MIC [4]: ≥ 32 µg/mL | MIC [5]: ≥ 32 µg/mL

CO/N=C(\C(=O)N[C@@H]1C(=O)N2C(C(=O)[O-])=C(C[N+]3(C)CCCC3)CS[C@H]12)c1csc(N)n1 [cefepime]
log10 CFU/lung ([6]; at 24 h, cefepime alone 32, cefepime/VNRX-5133 32:16, Caz/Avi 32:8 mg/kg s.c. single dose): 9.27 ± 0.21 log10 CFU/lung | reduction in viable bacterial counts in lung tissue ([6]; single subcutaneous dose, cefepime 32 mg/kg alone or cefepime/20 32 and 16 mg/kg, 24 h): not effective | MIC [7]: > 128 µg/mL | MIC [8]: 16 µg/mL (≈ 33.3 µM) | MIC [9]: 32 µg/mL (≈ 66.6 µM) | MIC [10]: > 128 µg/mL | MIC (E. coli CDC-0452 (NDM)): 64 µg/mL (≈ 133 µM) | log10 CFU/kidney [11]: 7.25 ± 0.16 log10 CFU/kidney | MIC (E. coli (CTX-M-15)): 128 µg/mL (≈ 266 µM) | MIC (K. pneumoniae (CTX-M-14)): 64 µg/mL (≈ 133 µM) | MIC [12]: 128 µg/mL (≈ 266 µM) | MIC [13]: 16 µg/mL (≈ 33.3 µM) | MIC [14]: > 128 µg/mL

NCCN[C@H]1CC[C@H](CC(=O)N[C@H]2Cc3cccc(C(=O)O)c3OB2O)CC1 [compound 20, (3R)-3-(2-{trans-4-[(2-Aminoethyl)amino]cyclohexyl}acetamido)-2-hydroxy-3,4-dihydro-2H-1,2-benzoxaborinine-8-carboxylic Acid]
activity against MMP-1 (MMP-1): no significant activity | activity against cathepsin G (cathepsin G): no significant activity | activity against MMP-2 (MMP-2): no significant activity | activity against Factor Xa (Factor Xa): no significant activity | activity against MMP-9 (MMP-9): no significant activity | activity against MMP-3 (MMP-3): no significant activity | activity against neutrophil elastase 2 (neutrophil elastase 2): no significant activity | activity against cytochrome P450 1A2 (cytochrome P450 1A2): no significant activity | activity against cytochrome P450 2D6 (cytochrome P450 2D6): no significant activity | activity against cytochrome P450 3A4 (cytochrome P450 3A4): no significant activity | activity against cytochrome P450 2C9 (cytochrome P450 2C9): no significant activity | activity against cytochrome P450 2C19 (cytochrome P450 2C19): no significant activity | MIC [15]: > 128 µg/mL | activity against panel of 50 human enzymes and receptors [16]: no significant activity | activity against hERG potassium channel (hERG potassium channel): no significant activity | IC50 (CphA): ~2510 nM | MIC (E. coli 25922 (W/T)): > 128 µg/mL | MIC [17]: > 128 µg/mL | activity against trypsin (trypsin): no significant activity | activity against chymotrypsin (chymotrypsin): no significant activity | MIC [18]: > 128 µg/mL | MIC [19]: > 128 µg/mL | toxicity in human primary proximal tubule cells [20]: No toxicity | MIC [21]: > 128 µg/mL | IC50 (OXA-48): 540 nM | MIC (S. aureus 29213 (W/T)): > 128 µg/mL | safety profile in the preclinical toxicity evaluation [22]: clean safety profile | inhibition of subclass B3 MBL L1 (L1): did not inhibit | IC50 (IMP-1 [23]): 2510 nM | MIC [24]: > 128 µg/mL | MIC [25]: > 128 µg/mL | decrease in the MIC of cefepime on addition of BLI [26]: ≥ 512 fold | MIC (S. aureus 33591 (MRSA)): > 128 µg/mL | MIC [27]: > 128 µg/mL | MIC [28]: > 128 µg/mL

NCc1ccc(CC(=O)N[C@H]2Cc3cccc(C(=O)O)c3OB2O)cc1 [compound 3]
inhibition of the MBL VIM-2, in words (VIM-2): micromolar levels

Reference: publication PMC7104248, “Discovery of Taniborbactam (VNRX-5133): A Broad-Spectrum Serine- and Metallo-β-lactamase Inhibitor for Carbapenem-Resistant Bacterial Infections” (Journal of Medicinal Chemistry, 2019)
